Source: ChEMBL document CHEMBL2074014, “Role of blood-brain barrier organic anion transporter 3 (OAT3) in the efflux of indoxyl sulfate, a uremic toxin: its involvement in neurotransmitter metabolite clearance from the brain” (J Neurochem, 2002)

Key:
[1] = molecular target: T1, Organic anion transporter 3 (OAT3) (Rattus norvegicus, UniProt Q9R1U7); experiment: TP_TRANSPORTER: inhibition of Indoxyl sulfate uptake (Indoxyl sulfate: 2 uM, Baclofen: 1000 uM) in Xenopus laevis oocytes; type: functional, cell-based, Oocyte; design: scale not given: the % may be the effect or the level left; details: probe Indoxyl sulfate, read-out: Activity
T1 sequence (Q9R1U7 whole entry): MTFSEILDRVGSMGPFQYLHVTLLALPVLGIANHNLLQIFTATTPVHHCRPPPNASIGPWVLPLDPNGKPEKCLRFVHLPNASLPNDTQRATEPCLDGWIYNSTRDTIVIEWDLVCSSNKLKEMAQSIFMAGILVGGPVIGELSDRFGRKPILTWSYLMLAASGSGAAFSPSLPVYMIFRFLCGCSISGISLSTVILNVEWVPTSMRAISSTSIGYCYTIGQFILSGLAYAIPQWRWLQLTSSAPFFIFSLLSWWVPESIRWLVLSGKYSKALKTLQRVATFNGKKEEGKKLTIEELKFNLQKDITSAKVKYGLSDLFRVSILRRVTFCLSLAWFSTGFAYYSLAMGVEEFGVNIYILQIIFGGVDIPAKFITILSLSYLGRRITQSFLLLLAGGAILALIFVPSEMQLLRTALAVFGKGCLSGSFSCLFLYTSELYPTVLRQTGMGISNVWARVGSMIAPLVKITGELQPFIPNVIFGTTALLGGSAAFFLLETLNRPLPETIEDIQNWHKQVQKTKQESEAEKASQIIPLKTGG

[2] = molecular target: T2, Organic anion transporter 3 (Rattus norvegicus, UniProt Q9R1U7); experiment: TP_TRANSPORTER: inhibition of Indoxyl sulfate uptake (Indoxyl sulfate: 2 uM, Ketoprofen: 1000 uM) in Xenopus laevis oocytes; type: functional, cell-based; design: scale not given: the % may be the effect or the level left; details: oocyte
T2 sequence (Q9R1U7 whole entry): T1 sequence (Q9R1U7 whole entry)

[3] = molecular target: T1, Organic anion transporter 3 (OAT3); experiment: TP_TRANSPORTER: inhibition of Indoxyl sulfate uptake (Indoxyl sulfate: 2 uM, 3,4-Dihydroxymandelic acid: 1000 uM) in Xenopus laevis oocytes; type: functional, cell-based, Oocyte; design: scale not given: the % may be the effect or the level left; details: probe Indoxyl sulfate, read-out: Activity
[4] = molecular target: T2, Organic anion transporter 3; experiment: TP_TRANSPORTER: inhibition of Indoxyl sulfate uptake (Indoxyl sulfate: 2 uM, Valproic acid: 1000 uM) in Xenopus laevis oocytes; type: functional, cell-based; details: oocyte
[5] = molecular target: T1, Organic anion transporter 3 (OAT3); experiment: TP_TRANSPORTER: inhibition of Indoxyl sulfate uptake (Indoxyl sulfate: 2 uM, 3-Methoxy-4-hydroxymandelic acid: 1000 uM) in Xenopus laevis oocytes; type: functional, cell-based, Oocyte; design: scale not given: the % may be the effect or the level left; details: probe Indoxyl sulfate, read-out: Activity
[6] = molecular target: T1, Organic anion transporter 3 (OAT3); experiment: TP_TRANSPORTER: inhibition of Indoxyl sulfate uptake (Indoxyl sulfate: 2 uM, Cefazolin: 1000 uM) in Xenopus laevis oocytes; type: functional, cell-based, Oocyte; design: scale not given: the % may be the effect or the level left; details: probe Indoxyl sulfate, read-out: Activity
[7] = molecular target: T1, Organic anion transporter 3 (OAT3); experiment: TP_TRANSPORTER: inhibition of Indoxyl sulfate uptake (Indoxyl sulfate: 2 uM, 5-Hydroxyindole acetic acid: 1000 uM) in Xenopus laevis oocytes; type: functional, cell-based, Oocyte; design: scale not given: the % may be the effect or the level left; details: probe Indoxyl sulfate, read-out: Activity
[8] = molecular target: T1, Organic anion transporter 3 (OAT3); experiment: TP_TRANSPORTER: inhibition of Indoxyl sulfate uptake (Indoxyl sulfate: 2 uM, 6-mercaptopurine: 1000 uM) in Xenopus laevis oocytes; type: functional, cell-based, Oocyte; design: scale not given: the % may be the effect or the level left; details: probe Indoxyl sulfate, read-out: Activity
[9] = molecular target: T1, Organic anion transporter 3 (OAT3); experiment: TP_TRANSPORTER: inhibition of Indoxyl sulfate uptake (Indoxyl sulfate: 2 uM, Melatonin: 1000 uM) in Xenopus laevis oocytes; type: functional, cell-based, Oocyte; design: scale not given: the % may be the effect or the level left; details: probe Indoxyl sulfate, read-out: Activity
[10] = molecular target: T1, Organic anion transporter 3 (OAT3); experiment: TP_TRANSPORTER: inhibition of Indoxyl sulfate uptake (Indoxyl sulfate: 2 uM, HVA: 1000 uM) in Xenopus laevis oocytes; type: functional, cell-based, Oocyte; design: scale not given: the % may be the effect or the level left; details: probe Indoxyl sulfate, read-out: Activity
[11] = molecular target: T1, Organic anion transporter 3 (OAT3); experiment: TP_TRANSPORTER: inhibition of Indoxyl sulfate uptake (Indoxyl sulfate: 2 uM, 3,4-Dihydroxyphenylacetic acid: 1000 uM) in Xenopus laevis oocytes; type: functional, cell-based, Oocyte; design: scale not given: the % may be the effect or the level left; details: probe Indoxyl sulfate, read-out: Activity
[12] = molecular target: T1, Organic anion transporter 3 (OAT3); experiment: TP_TRANSPORTER: inhibition of Indoxyl sulfate uptake (Indoxyl sulfate: 2 uM, ACV: 1000 uM) in Xenopus laevis oocytes; type: functional, cell-based, Oocyte; design: scale not given: the % may be the effect or the level left; details: probe Indoxyl sulfate, read-out: Activity
[13] = molecular target: T1, Organic anion transporter 3 (OAT3); experiment: TP_TRANSPORTER: inhibition of Indoxyl sulfate uptake (Indoxyl sulfate: 2 uM, Imidazoleacetic acid: 1000 uM) in Xenopus laevis oocytes; type: functional, cell-based, Oocyte; design: scale not given: the % may be the effect or the level left; details: probe Indoxyl sulfate, read-out: Activity
[14] = molecular target: T1, Organic anion transporter 3 (OAT3); experiment: TP_TRANSPORTER: inhibition of Indoxyl sulfate uptake (Indoxyl sulfate: 2 uM, 5-Methoxytryptophol: 1000 uM) in Xenopus laevis oocytes; type: functional, cell-based, Oocyte; design: scale not given: the % may be the effect or the level left; details: probe Indoxyl sulfate, read-out: Activity
[15] = molecular target: T1, Organic anion transporter 3 (OAT3); experiment: TP_TRANSPORTER: inhibition of Indoxyl sulfate uptake (Indoxyl sulfate: 2 uM, Benzoic acid: 1000 uM) in Xenopus laevis oocytes; type: functional, cell-based, Oocyte; design: scale not given: the % may be the effect or the level left; details: probe Indoxyl sulfate, read-out: Activity

NCC(CC(=O)O)c1ccc(Cl)cc1 (stereo not given) [BACLOFEN]
activity at 1000 µM [1]: 25.7%

CC(C(=O)O)c1cccc(C(=O)c2ccccc2)c1 (stereo not given) [KETOPROFEN]
Activity [2]: 22.3%

O=C(O)[C@H](O)c1ccc(O)c(O)c1
activity at 1000 µM [3]: 33.5%

CCCC(CCC)C(=O)O [VALPROIC ACID]
Activity [4]: is not an inhibitor [-]

COc1cc([C@@H](O)C(=O)O)ccc1O
activity at 1000 µM [5]: 27.3%

Cc1nnc(SCC2=C(C(=O)O)N3C(=O)[C@@H](NC(=O)Cn4cnnn4)[C@H]3SC2)s1 [CEFAZOLIN]
activity at 1000 µM [6]: 13.6%

O=C(O)Cc1c[nH]c2ccc(O)cc12
activity at 1000 µM [7]: 18.7%

Sc1ncnc2nc[nH]c12 [MERCAPTOPURINE ANHYDROUS]
activity at 1000 µM [8]: 19.1%

COc1ccc2[nH]cc(CCNC(C)=O)c2c1 [MELATONIN]
activity at 1000 µM [9]: 30.9%

COc1cc(CC(=O)O)ccc1O [HOMOVANILLIC ACID]
activity at 1000 µM [10]: 29.9%

O=C(O)Cc1ccc(O)c(O)c1 [3,4-DIHYDROXYPHENYLACETIC ACID]
activity at 1000 µM [11]: 8.86%

Nc1nc2c(ncn2COCCO)c(=O)[nH]1 [ACYCLOVIR]
activity at 1000 µM [12]: 7.66%

O=C(O)Cc1ncc[nH]1 [IMIDAZOLEACETIC ACID]
activity at 1000 µM [13]: 69.4%

COc1ccc2[nH]cc(CCO)c2c1
activity at 1000 µM [14]: 26.8%

O=C(O)c1ccccc1 [BENZOIC ACID]
activity at 1000 µM [15]: 71.6%
